“And” between values parts separate entries of the source, which are not always exact repeats. Equal values may be shown once.
Test: molar heat capacity at constant volume
Conditions: Liquid, Vacuum adiabatic calorimetry

FC(F)C(F)(F)OCC(F)(F)F [2,2,2-trifluoroethyl 1,1,2,2-tetrafluoroethyl ether]
Conditions	molar heat capacity at constant volume
342.15 K, 16809 kPa	207.06 J/K/mol
342.15 K, 16812 kPa	204.66 J/K/mol
343.15 K, 17505 kPa	207.06 J/K/mol
343.15 K, 17508 kPa	209.46 J/K/mol
344.15 K, 18201 kPa	208.46 J/K/mol
344.15 K, 18203 kPa	206.86 J/K/mol
345.15 K, 18896 kPa	207.66 J/K/mol
345.15 K, 18898 kPa	208.46 J/K/mol
346.15 K, 19590 kPa	208.86 J/K/mol
346.15 K, 19592 kPa	209.46 J/K/mol
347.15 K, 20282 kPa	208.46 J/K/mol
347.15 K, 20287 kPa	209.26 J/K/mol
348.15 K, 20974 kPa	209.86 J/K/mol
348.15 K, 20978 kPa	208.06 J/K/mol
349.15 K, 21666 kPa	210.06 J/K/mol
349.15 K, 21671 kPa	208.66 J/K/mol
350.15 K, 22357 kPa	208.66 J/K/mol
350.15 K, 22360 kPa	209.86 J/K/mol
351.15 K, 23047 kPa	209.86 J/K/mol
351.15 K, 23050 kPa	209.26 J/K/mol
352.15 K, 23735 kPa	210.86 J/K/mol
352.15 K, 23739 kPa	210.46 J/K/mol
353.15 K, 24423 kPa	210.26 J/K/mol
353.15 K, 24426 kPa	208.06 J/K/mol
354.15 K, 25110 kPa	210.86 J/K/mol
354.15 K, 25114 kPa	212.46 J/K/mol
355.15 K, 25797 kPa	211.06 J/K/mol
355.15 K, 25801 kPa	209.46 J/K/mol
356.15 K, 26482 kPa	211.86 J/K/mol
356.15 K, 26486 kPa	212.66 J/K/mol
357.15 K, 27166 kPa	211.26 J/K/mol
357.15 K, 27171 kPa	210.26 J/K/mol
358.15 K, 27851 kPa	212.26 J/K/mol
358.15 K, 27855 kPa	211.46 J/K/mol
359.15 K, 5632 kPa	208.86 J/K/mol
359.15 K, 5637 kPa	212.66 J/K/mol
359.15 K, 28535 kPa	212.86 J/K/mol
359.15 K, 28538 kPa	210.46 J/K/mol
360.15 K, 6174 kPa	219.66 J/K/mol
360.15 K, 6180 kPa	217.06 J/K/mol
360.15 K, 29217 kPa	214.06 J/K/mol
360.15 K, 29220 kPa	212.66 J/K/mol
361.15 K, 6718 kPa	218.26 J/K/mol
361.15 K, 6724 kPa	216.66 J/K/mol
361.15 K, 29899 kPa	213.46 J/K/mol
361.15 K, 29902 kPa	211.26 J/K/mol
362.15 K, 7261 kPa	215.86 J/K/mol
362.15 K, 7266 kPa	216.46 J/K/mol
363.15 K, 7803 kPa	218.26 J/K/mol
363.15 K, 7809 kPa	215.46 J/K/mol
364.15 K, 8346 kPa	219.06 J/K/mol
364.15 K, 8350 kPa	216.06 J/K/mol
365.15 K, 8888 kPa	216.66 J/K/mol
365.15 K, 8892 kPa	215.86 J/K/mol
366.15 K, 9430 kPa	217.86 J/K/mol
366.15 K, 9434 kPa	216.86 J/K/mol
367.15 K, 9971 kPa	217.46 J/K/mol
367.15 K, 9976 kPa	214.46 J/K/mol
368.15 K, 10512 kPa	219.06 J/K/mol
368.15 K, 10516 kPa	216.46 J/K/mol
369.15 K, 11053 kPa	221.26 J/K/mol
369.15 K, 11057 kPa	217.06 J/K/mol
370.15 K, 11593 kPa	218.86 J/K/mol
370.15 K, 11598 kPa	217.46 J/K/mol
371.15 K, 12133 kPa	218.66 J/K/mol
371.15 K, 12137 kPa	218.86 J/K/mol
372.15 K, 12673 kPa	218.86 J/K/mol
372.15 K, 12677 kPa	215.86 J/K/mol
373.15 K, 13212 kPa	219.66 J/K/mol
373.15 K, 13216 kPa	217.86 J/K/mol
374.15 K, 13752 kPa	219.46 J/K/mol
374.15 K, 13756 kPa	217.66 J/K/mol
375.15 K, 14290 kPa	217.86 J/K/mol
375.15 K, 14294 kPa	219.06 J/K/mol
376.15 K, 14828 kPa	220.86 J/K/mol
376.15 K, 14831 kPa	218.86 J/K/mol
377.15 K, 15366 kPa	220.06 J/K/mol
377.15 K, 15369 kPa	218.46 J/K/mol
378.15 K, 15904 kPa	218.46 J/K/mol
378.15 K, 15906 kPa	219.66 J/K/mol
379.15 K, 16441 kPa	218.86 J/K/mol
379.15 K, 16443 kPa	219.86 J/K/mol
380.15 K, 16977 kPa	219.26 J/K/mol
380.15 K, 16980 kPa	219.46 J/K/mol
381.15 K, 17514 kPa	219.26 J/K/mol
381.15 K, 17515 kPa	217.26 J/K/mol
382.15 K, 18050 kPa	219.86 J/K/mol
382.15 K, 18051 kPa	219.66 J/K/mol
383.15 K, 18585 kPa	221.26 J/K/mol
383.15 K, 18586 kPa	221.46 J/K/mol
384.15 K, 19120 kPa	220.66 J/K/mol
384.15 K, 19121 kPa	222.06 J/K/mol
385.15 K, 19655 kPa	218.86 J/K/mol
385.15 K, 19656 kPa	220.66 J/K/mol
386.15 K, 20189 kPa	221.06 J/K/mol
387.15 K, 20723 kPa	223.66 J/K/mol and 224.66 J/K/mol
388.15 K, 21256 kPa	224.66 J/K/mol and 224.06 J/K/mol
389.15 K, 21789 kPa	225.66 J/K/mol and 224.86 J/K/mol
390.15 K, 22322 kPa	226.86 J/K/mol and 224.86 J/K/mol
391.15 K, 22854 kPa	224.66 J/K/mol
391.15 K, 22855 kPa	228.46 J/K/mol
392.15 K, 23385 kPa	225.06 J/K/mol
392.15 K, 23386 kPa	227.06 J/K/mol
393.15 K, 23917 kPa	228.26 J/K/mol and 226.46 J/K/mol
394.15 K, 24448 kPa	226.26 J/K/mol and 223.66 J/K/mol
395.15 K, 24978 kPa	226.66 J/K/mol and 225.06 J/K/mol
396.15 K, 25507 kPa	229.06 J/K/mol
396.15 K, 25508 kPa	226.86 J/K/mol
397.15 K, 26037 kPa	228.06 J/K/mol
397.15 K, 26038 kPa	226.06 J/K/mol
398.15 K, 26566 kPa	229.06 J/K/mol
398.15 K, 26567 kPa	227.06 J/K/mol
399.15 K, 27094 kPa	227.06 J/K/mol
399.15 K, 27096 kPa	227.86 J/K/mol
400.15 K, 27622 kPa	228.66 J/K/mol
400.15 K, 27623 kPa	228.46 J/K/mol
401.15 K, 28150 kPa	229.66 J/K/mol
401.15 K, 28151 kPa	227.66 J/K/mol
402.15 K, 28677 kPa	226.66 J/K/mol
402.15 K, 28678 kPa	227.26 J/K/mol
403.15 K, 29204 kPa	229.26 J/K/mol
403.15 K, 29205 kPa	227.86 J/K/mol
404.15 K, 29730 kPa	227.86 J/K/mol
404.15 K, 29732 kPa	229.86 J/K/mol

Reference: the NIST ThermoML archive (doi:10.1007/s10765-010-0766-0)
